Read-outs that look alike come from different tables or passages of the source.
Legend:
[1] = system: Bloodstream form of Trypanosoma brucei, strain Lister 427; experiment: Trypanosoma brucei growth inhibition assay (CellTiter-Glo, 24 h); format: cell-based; settings: Trypanosoma brucei
Procedure, shortened: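 Bloodstream-form T. brucei Lister 427, 1500 parasites per well in supplemented IMDM with 10% FBS, were exposed to compound (DMSO ≤0.25% final) for 24 h at 37 °C. Viability was measured by CellTiter-Glo luminescence.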

HeLa cells = experiment: HeLa cytotoxicity assay (CellTiter Glo, 72 h); format: cell-based; settings: Homo sapiens, read-out: Cell Proliferation Hela IC50
Method: (§1) HeLa cells (ATCC® CCL2™) in DMEM (Dulbecco Modified Eagle's Medium) without phenol red, Thermo, 11880, USA+10% FBS+1× PenStrep+1× Gln or HUVEC cells (ATCC® CRL1730™) in EBM-2 (Endothelial Growth Basal Medium, Lonza, CC3156)+EGM-2 SingleQuotsTMSupplements and Growth Factors (Lonza, CC4176)+1× Penicyllin-Streptomycin (PenStrep, ThermoFisher)+1× Glutamine, are plated in a 384 well plate (Thermo, 4334-11, USA) to a density of 2000 cells per well and let recover for four hours at 37° C., 5% CO2 in a humidified atmosphere. After the recovery, compounds are transferred to assay plates as per compound preparation method. Assay plates are then incubated at 37° C., 5% CO2 in a humidified atmosphere for 72 hours. Cell viability is measured by the CellTiter Glo (Promega, G8080, USA) as per manufacturer instruction.

HUVEC cells = experiment: HUVEC cytotoxicity assay (CellTiter Glo, 72 h); format: cell-based; settings: Homo sapiens, read-out: Cell Proliferation HUVEC IC50
Method: as §1

[2] = PK studies: plasma exposure and pharmacokinetic parameters after i.v., oral and i.p. administration; format: in vivo, C57BL/6 mice
Method: C57BL/6 mice were used to evaluate plasma exposure and pharmacokinetic parameters after intravenous, oral and intraperitoneal administration (5, 10, 30 mpk). In each animal an indwelling cannula was implanted in the right jugular vein for blood sampling. The surgery was performed under light anaesthesia (Ketamine-Xilazine (85 mg/kg and 2.5 mg/kg respectively i.m.) one day prior the experiment). During the kinetic study, all animals were housed individually in plastic metabolism cages, and were unrestrained throughout the experiment. Compounds (6 mg/mL) were dissolved in PEG400/H2O (50/50). After an overnight fast, the mice (15 animals per experiment) received an i.v. (via caudal vein) or an oral dose of the compound. Blood samples were collected at different times point after dosing. Plasma was separated immediately after blood sampling by centrifugation, and the plasma samples were kept frozen (−20° C.) until assayed by LC/MS/MS.
Analytical procedures: Plasma samples were extracted using Liquid Handling Robot MultiProbe Packard by protein precipitation with acetonitrile. Then the samples were centrifuged (3000 rpm×15 min at 4° C.) and the supernatant transferred and dried under nitrogen. The samples were reconstituted in water/acetonitrile 90/10 and then injected directly into an HPLC column. Sample analyses were performed using a an API 3000 or/and API 2000 or/and API 4000 Mass Spectrometer interfaced via the Turbo Ion Spray (ESI)/APCI to an LC system consisting of an HTS PAL CTC autosampler and an Agilen HP 1100 Binary Pump. The results are calculated using Analyst Software linear regression with 1/x*x weighting. The Assay Precision was calculated for the Quality Controls by Watson Lims database.
Pharmacokinetic Analysis: The plasma clearance (CLp) of the compounds were calculated (using Watson PK program) as the dose divided by the area under the plasma concentration-time curve from time zero to infinity (AUC0-∞). The apparent half-life was estimated from the slope of the terminal phase of the log plasma concentration-time data. The volume of distribution (Vdss) was determined using the following noncompartmental method: Vdss=(Dose IV×AUMC)/(AUC0-∞)2 where AUMC is the total area under the first moment of the drug concentration time curve from time zero to infinity. Bioavailability was estimated as the AUC0-∞ ratio following oral and intravenous administration, normalized for differences in dose.

[3] = T. Brucei Growth Inibition Assay, class symbols, read-out: T. Brucei GI EC50
[4] = Table 3, read-out: T. brucei GI EC50

| SMILES | EC50 [1, 3] [nM] | EC50 [1, 4] [nM] | IC50 (HeLa cells) [nM] | IC50 (HUVEC cells) [nM] | EC50 ([1]; Table 4, read-out: T. brucei Growth inhibition EC50) [nM] | EC90 ([1]; Table 4, read-out: T. brucei Growth inhibition EC90) [nM] | clearance ([2]; C57BL/6, intravenous, 5 mpk, mouse, plasma clearance) [mL/min/kg] | AUC ([2]; C57BL/6, mouse, plasma, oral, 10 mpk) [µM·h] | bioavailability ([2]; C57BL/6, plasma, 10 mg/kg, mouse, 10 mpk, po, single oral dose, read-out: Oral Bioavailability F %) [%] | i.p. max brain concentration ([2]; mouse, after intraperitoneal injection (30 mpk), brain) [nM] |
| --- | --- | --- | --- | --- | --- | --- | --- | --- | --- | --- |
| COc1nc2ccccc2cc1-c1cnc(C2CN(C)CCN2C(=O)Cc2c(C)[nH]c3ccc(F)cc23)[nH]1 (centres unmarked) [2-(5-fluoro-2-methyl-1H-indol-3-yl)-1-(2-(5-(2-methoxyquinolin-3-yl)-1H-imidazol-2-yl)-4-methylpiperazin-1-yl)ethan-1-one] | 100 to 500 | 122 | 18100 | 5680 | – | – | – | – | – | – |
| COc1ccc2[nH]c(C)c(CC(=O)N3CCN(C)CC3c3ncc(-c4ccc5ccccc5c4)[nH]3)c2c1 (centres unmarked) [2-(5-methoxy-2-methyl-1H-indol-3-yl)-1-(4-methyl-2-(5-(naphthalen-2-yl)-1H-imidazol-2-yl)piperazin-1-yl)ethan-1-one] | < 100 | 39.9 | ≥ 25000 | 21800 | – | – | – | – | – | – |
| CCC(O)CCCN1CCN(C(=O)Cc2c(C)[nH]c3ccc(OC)cc23)C(c2ncc(-c3ccc4ccccc4c3)[nH]2)C1 (centres unmarked) [1-(4-(4-hydroxyhexyl)-2-(5-(naphthalen-2-yl)-1H-imidazol-2-yl)piperazin-1-yl)-2-(5-methoxy-2-methyl-1H-indol-3-yl)ethan-1-one] | < 100 | 13 | 13100 | 9270 | – | – | – | – | – | – |
| COc1ccc2[nH]c(C)c(CC(=O)N3CCN(CC4CC4)CC3c3ncc(-c4ccc5ccccc5c4)[nH]3)c2c1 (centres unmarked) [1-(4-(cyclopropylmethyl)-2-(5-(naphthalen-2-yl)-1H-imidazol-2-yl)piperazin-1-yl)-2-(5-methoxy-2-methyl-1H-indol-3-yl)ethan-1-one] | < 100 | 17.6 | ≥ 25000 | 8060 | – | – | – | – | – | – |
| CCC(=O)CCCN1CCN(C(=O)Cc2c(C)[nH]c3ccc(OC)cc23)C(c2ncc(-c3cc4ccccc4nc3OC)[nH]2)C1 (centres unmarked) [6-(4-(2-(5-methoxy-2-methyl-1H-indol-3-yl)acetyl)-3-(5-(2-methoxyquinolin-3-yl)-1H-imidazol-2-yl)piperazin-1-yl)hexan-3-one] | < 100 | 34.2 | ≥ 25000 | 21400 | – | – | – | – | – | – |
| CCC(=O)CCCN1CCN(C(=O)Cc2c(C)[nH]c3ccc(OC)cc23)C(c2ncc(-c3ccc4ccccc4c3)[nH]2)C1 (centres unmarked) [6-(4-(2-(5-methoxy-2-methyl-1H-indol-3-yl)acetyl)-3-(5-(naphthalen-2-yl)-1H-imidazol-2-yl)piperazin-1-yl)hexan-3-one] | < 100 | 9.92 | 12300 | ≥ 25000 | – | – | – | – | – | – |
| CCC(=O)CCCN1CCN(C(=O)Cc2c[nH]c3ncccc23)C(c2ncc(-c3ccc4ccccc4c3)[nH]2)C1 (centres unmarked) | 510 to 1000 | 545 | ≥ 25000 | ≥ 25000 | – | – | – | – | – | – |
| COc1nc2ccccc2cc1-c1cnc(C2CN(CC3CCOC3)CCN2C(=O)Cn2c(C(F)(F)F)nc3ccccc32)[nH]1 (centres unmarked) [1-(2-(5-(2-methoxyquinolin-3-yl)-1H-imidazol-2-yl)-4-((tetrahydrofuran-3-yl)methyl)piperazin-1-yl)-2-(2-(trifluoromethyl)-1H-benzo[d]imidazol-1-yl)ethan-1-one] | < 100 | 29.9 | 21500 | 14100 | 30 | 287 | 44.7 | 4.6 | 78 | 190 |
| COc1nc2ccccc2cc1-c1cnc(C2CN(C3CCOCC3)CCN2C(=O)Cc2c(C)[nH]c3ccc(F)cc23)[nH]1 (centres unmarked) [2-(5-fluoro-2-methyl-1H-indol-3-yl)-1-(2-(5-(2-methoxyquinolin-3-yl)-1H-imidazol-2-yl)-4-(tetrahydro-2H-pyran-4-yl)piperazin-1-yl)ethan-1-one] | 100 to 500 | 117 | ≥ 25000 | 10600 | – | – | – | – | – | – |
| CCC(=O)CCCN1CCN(C(=O)Cc2c[nH]c3ccccc23)C(c2ncc(-c3ccc4ccccc4c3)[nH]2)C1 (centres unmarked) | 100 to 500 | 489 | ≥ 25000 | 9970 | – | – | – | – | – | – |
| COc1ccc2[nH]c(C)c(CC(=O)N3CCN(CC4CCOC4)CC3c3ncc(-c4ccc5ccccc5c4)[nH]3)c2c1 (centres unmarked) [2-(5-methoxy-2-methyl-1H-indol-3-yl)-1-(2-(5-(naphthalen-2-yl)-1H-imidazol-2-yl)-4-((tetrahydrofuran-3-yl)methyl)piperazin-1-yl)ethan-1-one] | < 100 | 4.72 | ≥ 25000 | 18700 | – | – | – | – | – | – |
| COc1nc2ccccc2cc1-c1cnc(C2CN(CC3CCOC3)CCN2C(=O)Cc2c(C)[nH]c3ccc(F)cc23)[nH]1 (centres unmarked) [2-(5-fluoro-2-methyl-1H-indol-3-yl)-1-(2-(5-(2-methoxyquinolin-3-yl)-1H-imidazol-2-yl)-4-((tetrahydrofuran-3-yl)methyl)piperazin-1-yl)ethan-1-one] | < 100 | 35.1 | 18700 | 9630 | – | – | – | – | – | – |
| CCCCCCN1CCN(C(=O)Cc2c(C)[nH]c3ccc(OC)cc23)C(c2ncc(-c3ccc4ccccc4c3)[nH]2)C1 (centres unmarked) [1-(4-hexyl-2-(5-(naphthalen-2-yl)-1H-imidazol-2-yl)piperazin-1-yl)-2-(5-methoxy-2-methyl-1H-indol-3-yl)ethan-1-one] | < 100 | 78.7 | ≥ 25000 | ≥ 25000 | – | – | – | – | – | – |
| COc1ccc2[nH]c(C)c(CC(=O)N3CCN(CC4CCOC4)CC3c3ncc(-c4cc5ccccc5nc4OC)[nH]3)c2c1 (centres unmarked) [2-(5-methoxy-2-methyl-1H-indol-3-yl)-1-(2-(5-(2-methoxyquinolin-3-yl)-1H-imidazol-2-yl)-4-((tetrahydrofuran-3-yl)methyl)piperazin-1-yl)ethan-1-one] | < 100 | 22.9 | ≥ 25000 | 23200 | – | – | – | – | – | – |
| COc1nc2ccccc2cc1-c1cnc(C2CN(CC3CCOC3)CCN2C(=O)Cn2c(C)nc3ccccc32)[nH]1 (centres unmarked) [1-(2-(5-(2-methoxyquinolin-3-yl)-1H-imidazol-2-yl)-4-((tetrahydrofuran-3-yl)methyl)piperazin-1-yl)-2-(2-methyl-1H-benzo[d]imidazol-1-yl)ethan-1-one] | 100 to 500 | 163 | 20600 | ≥ 25000 | – | – | – | – | – | – |
| COc1ccc2[nH]c(C)c(CC(=O)N3CCN(C)CC3c3ncc(-c4cc5ccccc5nc4OC)[nH]3)c2c1 (centres unmarked) [2-(5-methoxy-2-methyl-1H-indol-3-yl)-1-(2-(5-(2-methoxyquinolin-3-yl)-1H-imidazol-2-yl)-4-methylpiperazin-1-yl)ethan-1-one] | 100 to 500 | 139 | ≥ 25000 | ≥ 25000 | – | – | – | – | – | – |
| CCC(=O)CCCN1CCN(C(=O)Cc2c(C)[nH]c3ccc(OC)cc23)C(c2nnc(-c3ccc4ccccc4c3)o2)C1 (centres unmarked) [6-(4-(2-(5-methoxy-2-methyl-1H-indol-3-yl)acetyl)-3-(5-(naphthalen-2-yl)-1,3,4-oxadiazol-2-yl)piperazin-1-yl)hexan-3-one] | 100 to 500 | 350 | ≥ 25000 | ≥ 25000 | – | – | – | – | – | – |
